In article PMC10698194 (Nature Communications, 2023):
“And” between values parts separate entries of the source, which are not always exact repeats. Identical values can stand only once. Bridge positions count the residues as written; N and C are the ends. Square brackets hold non-standard residues; d marks the D form. Peptide text beside a SMILES is read from it. * marks the point of attachment. X1 = C=CCN1CC[C@]23c4c5ccc(O)c4O[C@H]2[C@H](N*)CC[C@@]3(O)[C@H]1C5

Legend:
mouse KOR [1] = target: T1, mouse KOR (Mus musculus, UniProt P33534); assay: biochemical; type: binding; design: expressed in transfected cells; settings: for specific [3H]DPN binding, normalized to 100%: replicates; for Ki: [3H]DPN 1 nM, read-out: Ki
T1 sequence (P33534 whole entry): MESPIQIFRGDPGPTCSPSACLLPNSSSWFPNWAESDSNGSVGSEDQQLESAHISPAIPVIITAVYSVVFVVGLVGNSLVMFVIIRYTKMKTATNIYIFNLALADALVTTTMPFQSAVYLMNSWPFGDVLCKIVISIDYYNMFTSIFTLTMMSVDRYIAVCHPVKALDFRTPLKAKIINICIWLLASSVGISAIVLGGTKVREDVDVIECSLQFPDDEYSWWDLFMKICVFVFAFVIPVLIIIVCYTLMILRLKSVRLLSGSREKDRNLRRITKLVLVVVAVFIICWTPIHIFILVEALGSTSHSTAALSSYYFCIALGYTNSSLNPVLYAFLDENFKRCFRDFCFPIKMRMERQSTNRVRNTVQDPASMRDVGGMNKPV

mouse KOR [2] = target: T1, mouse KOR; assay: cell-based; design: expressed in transfected cells; settings: for Emax: HEK-293T, read-out: Emax cAMP assay; for EC50: read-out: EC50 cAMP assay

C=CCN1CC[C@]23c4c5ccc(O)c4O[C@H]2[C@H](NC(=O)[C@@H](Cc2ccccc2)NC(=O)[C@H](CO)NC(=O)[C@@H]2CSCC(=O)N[C@H](CO)C(=O)N[C@H](CC(=O)O)C(=O)N[C@H](Cc4c[nH]cn4)C(=O)N[C@@H](C)C(=O)N[C@@H](C)C(=O)N2)CC[C@@]3(O)[C@H]1C5 [DNCP-β-NalA(4)]
specific [3H]DPN binding, normalized to 100% (mouse KOR [1]; Log [ligand] (M) -5): 7 and 5.59 and 5.4127
specific [3H]DPN binding, normalized to 100% (mouse KOR [1]; Log [ligand] (M) -5.5): 12.4013 and 7.976 and 9.019
specific [3H]DPN binding, normalized to 100% (mouse KOR [1]; Log [ligand] (M) -6): 12.817 and 12.3329 and 11.7119
specific [3H]DPN binding, normalized to 100% (mouse KOR [1]; Log [ligand] (M) -6.5): 19.572 and 16.0481 and 16.106
specific [3H]DPN binding, normalized to 100% (mouse KOR [1]; Log [ligand] (M) -7): 34.7156 and 27.5243 and 29.2083
specific [3H]DPN binding, normalized to 100% (mouse KOR [1]; Log [ligand] (M) -7.5): 62.865 and 48.8054 and 54.3277
specific [3H]DPN binding, normalized to 100% (mouse KOR [1]; Log [ligand] (M) -8): 85.7392 and 63.6235 and 68.5184
specific [3H]DPN binding, normalized to 100% (mouse KOR [1]; Log [ligand] (M) -8.5): 110.569 and 79.1117 and 88.8606
specific [3H]DPN binding, normalized to 100% (mouse KOR [1]; Log [ligand] (M) -9): 116.546 and 94.2824 and 100.104
specific [3H]DPN binding, normalized to 100% (mouse KOR [1]; Log [ligand] (M) -9.5): 100
Emax (mouse KOR [2]): 101 ± 2%
EC50 (mouse KOR [2]): 1 nM

C=CCN1CC[C@]23c4c5ccc(O)c4O[C@H]2[C@H](NC(=O)[C@@H](Cc2ccccc2)NC(=O)[C@@H](NC(=O)[C@@H]2CSCC(=O)N[C@@H](CC(=O)O)C(=O)N[C@@H](C)C(=O)N[C@H](Cc4ccc(O)cc4)C(=O)N[C@H](C)C(=O)N[C@@H](C(C)C)C(=O)N2)[C@@H](C)O)CC[C@@]3(O)[C@H]1C5 [DNCP-β-NalA(3)] ({CH2CO}-DA[dY][dA]VCT[dF]-X1; thioether N-6)
specific [3H]DPN binding, normalized to 100% (mouse KOR [1]; Log [ligand] (M) -5): 4.711 and 4.268 and 3.134
specific [3H]DPN binding, normalized to 100% (mouse KOR [1]; Log [ligand] (M) -5.5): 9.049 and 8.477 and 7.931
specific [3H]DPN binding, normalized to 100% (mouse KOR [1]; Log [ligand] (M) -6): 13.9379 and 12.8705 and 12.6183
specific [3H]DPN binding, normalized to 100% (mouse KOR [1]; Log [ligand] (M) -6.5): 21.3908 and 20.9203 and 21.0807
specific [3H]DPN binding, normalized to 100% (mouse KOR [1]; Log [ligand] (M) -7): 41.59 and 36.2221 and 28.4597
specific [3H]DPN binding, normalized to 100% (mouse KOR [1]; Log [ligand] (M) -7.5): 75.8729 and 62.6776 and 54.9604
specific [3H]DPN binding, normalized to 100% (mouse KOR [1]; Log [ligand] (M) -8): 98.7879 and 86.9193 and 89.7517
specific [3H]DPN binding, normalized to 100% (mouse KOR [1]; Log [ligand] (M) -8.5): 102.113 and 95.9134 and 97.9933
specific [3H]DPN binding, normalized to 100% (mouse KOR [1]; Log [ligand] (M) -9): 101.53 and 101.749 and 103.107
specific [3H]DPN binding, normalized to 100% (mouse KOR [1]; Log [ligand] (M) -9.5): 100
Ki (mouse KOR [1]): 24 nM
Emax (mouse KOR [2]): 99 ± 1%
EC50 (mouse KOR [2]): 14 nM

C=CCN1CC[C@]23c4c5ccc(O)c4O[C@H]2[C@H](NC(=O)[C@@H](Cc2ccccc2)NC(=O)[C@H](CO)NC(=O)[C@@H]2CSCC(=O)N[C@H]([C@H](C)O)C(=O)N[C@@H](CC(N)=O)C(=O)N[C@H](CCC(=O)O)C(=O)N[C@H](CO)C(=O)N[C@H](CC(C)C)C(=O)N2)CC[C@@]3(O)[C@H]1C5 [DNCP-β-NalA(2)] ({CH2CO}-[dT]N[dE][dS][dL]CS[dF]-X1; thioether N-6)
specific [3H]DPN binding, normalized to 100% (mouse KOR [1]; Log [ligand] (M) -5): 0.2531 and 1.3817 and 8.417
specific [3H]DPN binding, normalized to 100% (mouse KOR [1]; Log [ligand] (M) -5.5): 5.254 and 5.706 and 15.2738
specific [3H]DPN binding, normalized to 100% (mouse KOR [1]; Log [ligand] (M) -6): 8.812 and 8.467 and 22.3516
specific [3H]DPN binding, normalized to 100% (mouse KOR [1]; Log [ligand] (M) -6.5): 20.0364 and 16.1798 and 28.5928
specific [3H]DPN binding, normalized to 100% (mouse KOR [1]; Log [ligand] (M) -7): 30.6965 and 29.2448 and 46.3656
specific [3H]DPN binding, normalized to 100% (mouse KOR [1]; Log [ligand] (M) -7.5): 73.9679 and 58.4159 and 82.1752
specific [3H]DPN binding, normalized to 100% (mouse KOR [1]; Log [ligand] (M) -8): 84.0925 and 77.2121 and 90.6295
specific [3H]DPN binding, normalized to 100% (mouse KOR [1]; Log [ligand] (M) -8.5): 94.004 and 85.6847 and 98.8664
specific [3H]DPN binding, normalized to 100% (mouse KOR [1]; Log [ligand] (M) -9): 85.0018 and 88.1692 and 96.9444
specific [3H]DPN binding, normalized to 100% (mouse KOR [1]; Log [ligand] (M) -9.5): 100
Ki (mouse KOR [1]): 31 nM
Emax (mouse KOR [2]): 89 ± 2%
EC50 (mouse KOR [2]): 7.5 nM
